From patent publication US20180334453A1, “ISOINDOLINE DERIVATIVES” (VIIV HEALTHCARE UK LIMITED, priority 2015, published 2018)

System: HIV
Experiment: MT4 assay (anti-HIV activity)
Format: cell-based
Conditions: HTLV-1 transformed cell line MT-4; luciferase activity measured 96 hours later (cell titer glo); 10 point dose response
Description: Antiviral HIV activity and cytotoxicity values for compounds of the invention from Table 1 were measured in parallel in the HTLV-1 transformed cell line MT-4 based on the method previously described (Hazen et al., 2007, In vitro antiviral activity of the novel, tyrosyl-based human immunodeficiency virus (HIV) type 1 protease inhibitor brecanavir (GW640385) in combination with other antiretrovirals and against a panel of protease inhibitor-resistant HIV (Hazen et al., “In vitro antiviral activity of the novel, tyrosyl-based human immunodeficiency virus (HIV) type 1 protease inhibitor brecanavir (GW640385) in combination with other antiretrovirals and against a panel of protease inhibitor-resistant HIV”, Antimicrob. Agents Chemother. 2007, 51: 3147-3154; and Pauwels et al., “Sensitive and rapid assay on MT-4 cells for the detection of antiviral compounds against the AIDS virus”, J. of Virological Methods 1987, 16: 171-185).
Luciferase activity was measured 96 hours later by adding a cell titer glo (Promega, Madison, Wis.). Percent inhibition of cell protection data was plotted relative to no compound control. Under the same condition, cytotoxicity of the compounds was determined using cell titer Glo™ (Promega, Madison, Wis.). IC50 s were determined from a 10 point dose response curve using 3-4-fold serial dilution for each compound, which spans a concentration range >1000 fold.
These values are plotted against the molar compound concentrations using the standard four parameter logistic equation:
y=((Vmax*x̂n)/(K̂n+x̂n))+Y2
Y2=minimum y n=slope factor
Vmax=maximum y x=compound concentration [M]

SMILES	IC50
Cc1c(-c2c([C@H](OC(C)(C)C)C(=O)O)c(C(F)(F)F)c3c(c2C(F)(F)F)CN(C(=O)c2cccc(F)c2)C3)cc(F)c2c1CCCO2 (atropisomer, axis not shown; (M)) [Example 4, (2S)(M)-2-(tert-butoxy)-2-(6-(8-fluoro-5-methylchroman-6-yl)-2-(3-fluorobenzoyl)-4,7-bisarifluoromethasoindolin-5-yl)acetic Acid]	4 nM
Cc1ccc(-c2c([C@H](OC(C)(C)C)C(=O)O)c(C(F)(F)F)c3c(c2C(F)(F)F)CN(C(=O)c2cccc(F)c2)C3)cc1 [Example 3]	5 nM
CCO[C@H](C(=O)O)c1c(C)c2c(c(C)c1-c1cc(F)c3c(c1C)CCCO3)CN(C(=O)c1cccc(F)c1)C2 (atropisomer, axis not shown; (M)) [Example 1, (2S)(M)-2-ethoxy-2-((R)-6-(8-fluoro-5-methylchroman-6-yl)-2-(3-fluorobenzoyl)-4,7-dimethylisoindolin-5-yl)acetic Acid]	145 nM
Cc1ccc(-c2c([C@H](OC(C)(C)C)C(=O)O)c(C(F)(F)F)c3c(c2C(F)(F)F)CN(C(=O)OCc2ccccc2)C3)cc1 [Example 2, (S)-2-(2-((benzyloxy)carbonyI)-6-(p-tolyl)-4,7-bis(trifluoromethyl)isoindolin-5-yl)-2-(tert-butoxy)acetic Acid]	4400 nM
